Test results taken from patent US9062047B2, “Crystalline form of pyrimido[6,1-A] isoquinolin-4-one compound” (Verona Pharma plc, priority 2010, dated 2015).

Key:
[1] = polymorph A (marketed) vs form B; cited from earlier work
[2] = Thermodynamic aqueous solubility by HPLC; format: physicochemical; settings: purified water; for Aqueous solubility: pH 7, 25° C., 24 hours, 20 mg in 1 ml
Description: Thermodynamic Aqueous Solubility by HPLC: Aqueous solubility was determined by suspending sufficient compound in HPLC grade water to give a maximum final concentration of ≧20 mg ml^−1 of the parent compound. The suspension was equilibrated at 25° C. for 24 hours. The suspension was then filtered through a filter into a HPLC vial. The filtrate was then diluted by an appropriate factor. Quantification was executed by HPLC with reference to a standard solution of approximately 0.5 mg ml^−1 in Acetonitrile:Water: (1:1). Different volumes of the standard, diluted and undiluted sample solutions were injected. The solubility was calculated using the peak areas determined by integration of the peak found at the same retention time as the principal peak in the standard injection.
Analysis was performed on an Agilent 1100 series liquid chromatography, equipped with a UV detector (DAD or VWD) @254 nm and using Chemstation Rev.B.01.03 software for data processing. Chemical purity determination by HPLC.
As amorphous material and Form I were in hand, both samples were exposed to a straight forward aqueous solubility study in purified water at 25° C. This experiment was performed as it was unknown whether crystalline or amorphous material was initially isolated in-house during a previous synthesis campaign.
• A suspension of 20 mg of the candidate was mixed in purified water (1 ml, pH 7). The suspension was equilibrated at 25° C. for 24 hours. The suspension was then filtered into an HPLC vial and the filtrate then diluted by an appropriate factor with quantification being executed by HPLC with reference to a standard solution.

[3] = Slurry maturation (heat/cool cycles), XRPD; format: physicochemical; settings: 24 solvents, cycled 20° C./50° C., 8 hour periods, 4 days
Description: 24× Slurry maturations were performed in an attempt to stress the current crystalline solid into undergoing form transformation.
• Some 20 mg of material was agitated in glass tubes in approximately 30 volumes of solvent and cycled between isothermal periods (8 hours) of 20° C. and 50° C. After 4 days of cycling, the solids were filtered off and dried in vacuo at 45° C. prior to analysis by XRPD. All results were compared to the starting material, RPL554 (Form I); see Table 4.

[4] = Applied pressure (100 KN), XRPD and DSC; format: physicochemical; settings: overnight, 10 mg
Description: Applied pressure (100 KN): 10 mg of RPL554 was left in a pressing disc system overnight, forming a fine and uniform disc with a thickness of less than 0.1 mm. The disc was gently ground and analysed by XRPD (FIG. 13).

[5] = Crash cooling of a melt, LC/HPLC analysis (stability at temperature); format: physicochemical
Description: As there was historical experimental proof of generating amorphous material by heating RPL554 Form I up to 245° C. and rapidly cooling the melt, a repeat of this method was performed (TGA basis) and produced the same, clear, yellow, glass like material.
A proposed glass transition can be observed at approximately 120° C., with no formal recrystallisation observed. While this experiment was running, the sample was submitted for LC analysis, as stability at temperature was known to be a potential issue (observation of TGA). […] The experiment was repeated at a lower temperature (240° C.), this trying to avoid decomposition and thus return a better profile in terms of purity. LC analysis returned a similar profile of very low purity and various secondary products. It was therefore apparent that amorphous material would not be generated in this manner.

Row | SMILES | Difference in bio-activity between form A and form B [1] | Aqueous solubility compared with Form I ([2]; 25° C.) | Aqueous solubility [2] [µg/mL] | Form change on slurry maturation (XRPD) [3] | Form change under applied pressure (XRPD) [4] | Product by HPLC analysis after crash cooling a melt ([5]; crash cooled melt, amorphous by XRPD) [%] | Starting material remaining by LC after crash cooled melt ([5]; heated up to 245° C. and rapidly cooled) [%]
1 | CCCCCCCCCCCCCCCC(=O)OC[C@@H](NC(=O)C(Cl)Cl)[C@H](O)c1ccc([N+](=O)[O-])cc1 [Chloramphenicol-3-palmitate] | eight | – | – | – | – | – | –
2 | COc1cc2c(cc1OC)-c1c/c(=N\c3c(C)cc(C)cc3C)n(CCNC(N)=O)c(=O)n1CC2 [JN376F] | – | more soluble than Form I | 30 | – | – | – | –
3 | COc1cc2c(cc1OC)-c1c/c(=N\c3c(C)cc(C)cc3C)n(CCNC(N)=O)c(=O)n1CC2 [RPL554, N-{2-[(2E)-2-(mesitylimino)-9,10-dimethoxy-4-oxo-6,7-dihydro-2H-pyrimido[6,1-a]-isoquinolin-3 (4H)-yl]ethyl}urea] | – | – | 1 | extremely resilient to change | generates an amorphous phase | < 20 | 26
